The values below are quoted from earlier work in patent US20220288273A1, “OSTEOINDUCTIVE MODIFIED GELATIN HYDROGELS AND METHODS OF MAKING AND USING THE SAME” (THE REGENTS OF THE UNIVERSITY OF CALIFORNIA, priority 2019, published 2022).

For the compound `Cc1cc(C)c(C(=O)P(=O)([O-])c2ccccc2)c(C)c1.[Li+]` [LAP, Lithium phenyl-2,4,6-trimethylbenzoylphosphinate], the water solubility result is “high water solubility”.

Take `CC(C)(O)C(=O)c1ccc(OCCO)cc1` [Irgacure-2959, 2-Hydroxy-4′-(2-hydroxyethoxy)-2-methylpropiophenone]: the water solubility result is “low water solubility”.
